Measurements taken from patent publication US10670605B2, “Cysteine reactive probes and uses thereof” (The Scripps Research Institute, priority 2015, dated 2020).

Legend:
IRF8 C306 (Q02556) = molecular target: T1, IRF8 C306 (Q02556) (Homo sapiens, UniProt Q02556); experiment: Competitive isoTOP-ABPP, cell lysates; assay type: binding; settings: for isoTOP-ABPP reactivity profile ratio, Q02556_C306 / isoTOP-ABPP reactivity ratio, Q02556_C306: 500 μm, in-vitro_ramos
T1 sequence (Q02556 1-426): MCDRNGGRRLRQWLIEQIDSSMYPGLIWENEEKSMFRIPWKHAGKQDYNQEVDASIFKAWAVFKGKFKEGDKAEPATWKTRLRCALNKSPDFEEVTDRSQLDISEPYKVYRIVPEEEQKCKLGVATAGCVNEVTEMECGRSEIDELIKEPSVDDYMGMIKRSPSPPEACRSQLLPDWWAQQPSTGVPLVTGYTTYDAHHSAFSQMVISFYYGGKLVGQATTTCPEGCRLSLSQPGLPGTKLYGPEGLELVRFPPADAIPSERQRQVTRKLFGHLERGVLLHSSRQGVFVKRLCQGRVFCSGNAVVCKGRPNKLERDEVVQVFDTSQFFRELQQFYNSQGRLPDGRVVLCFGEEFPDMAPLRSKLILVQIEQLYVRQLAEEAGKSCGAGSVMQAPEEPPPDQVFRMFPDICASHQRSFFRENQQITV

RRAGC C358 (Q9HB90) = RRAGC C358 (Q9HB90) (Homo sapiens, UniProt Q9HB90); experiment: Competitive isoTOP-ABPP, cell lysates; assay type: binding; settings: for isoTOP-ABPP ratio (reactivity profile), Q9HB90_C358: 500 μm in-vitro ramos_231
RRAGC C358 (Q9HB90), sequence (Q9HB90 2-399 limits assumed): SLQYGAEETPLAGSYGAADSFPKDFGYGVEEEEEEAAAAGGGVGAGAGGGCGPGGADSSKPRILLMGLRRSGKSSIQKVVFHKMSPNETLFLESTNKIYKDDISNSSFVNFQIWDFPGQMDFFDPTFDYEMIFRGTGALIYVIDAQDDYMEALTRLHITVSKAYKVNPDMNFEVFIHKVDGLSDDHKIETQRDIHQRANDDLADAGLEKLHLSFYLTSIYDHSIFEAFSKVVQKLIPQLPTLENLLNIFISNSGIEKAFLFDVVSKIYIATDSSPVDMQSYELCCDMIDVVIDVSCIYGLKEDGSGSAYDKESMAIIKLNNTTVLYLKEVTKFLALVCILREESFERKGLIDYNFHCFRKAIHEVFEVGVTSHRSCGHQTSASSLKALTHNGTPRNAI
RRAGC C358 (Q9HB90), sequence (Q7L523 whole entry partner, the tested form may be a part): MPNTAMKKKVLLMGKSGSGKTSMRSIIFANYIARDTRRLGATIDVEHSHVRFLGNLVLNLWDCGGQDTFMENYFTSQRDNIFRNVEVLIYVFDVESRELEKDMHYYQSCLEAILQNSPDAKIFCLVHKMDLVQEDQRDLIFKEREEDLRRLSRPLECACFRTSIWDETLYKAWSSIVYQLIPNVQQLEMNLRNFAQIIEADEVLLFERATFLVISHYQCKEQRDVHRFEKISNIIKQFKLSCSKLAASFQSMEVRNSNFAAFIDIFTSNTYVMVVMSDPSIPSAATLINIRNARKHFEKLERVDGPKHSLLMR

[1] = molecular target: cysteines in MDA-MB-231 and Ramos cells (Homo sapiens, UniProt P45984); experiment: Competitive isoTOP-ABPP in situ (fragment-treated cells); assay type: cell-based
cysteines in MDA-MB-231 and Ramos cells (Homo sapiens, UniProt P45984), sequence (P45984 whole entry, the tested form may be a part): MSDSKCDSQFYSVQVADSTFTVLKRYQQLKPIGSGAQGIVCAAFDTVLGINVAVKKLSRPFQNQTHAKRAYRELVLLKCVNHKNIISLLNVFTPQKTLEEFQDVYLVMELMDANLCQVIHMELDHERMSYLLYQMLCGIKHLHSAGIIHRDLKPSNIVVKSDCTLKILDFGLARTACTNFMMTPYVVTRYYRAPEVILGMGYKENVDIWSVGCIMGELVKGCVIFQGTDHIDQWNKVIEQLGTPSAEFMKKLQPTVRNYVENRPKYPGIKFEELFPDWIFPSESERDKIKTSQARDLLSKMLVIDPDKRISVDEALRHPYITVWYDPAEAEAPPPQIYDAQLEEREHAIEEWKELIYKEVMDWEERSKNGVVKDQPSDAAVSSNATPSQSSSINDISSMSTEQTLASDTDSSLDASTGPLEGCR

[2] = molecular target: T2, cysteines in MDA-MB-231 and Ramos cells (Homo sapiens, UniProt Q13158); experiment: as above; assay type: cell-based; settings: 200 μM, insitu, 231
T2 sequence (Q13158 1-208): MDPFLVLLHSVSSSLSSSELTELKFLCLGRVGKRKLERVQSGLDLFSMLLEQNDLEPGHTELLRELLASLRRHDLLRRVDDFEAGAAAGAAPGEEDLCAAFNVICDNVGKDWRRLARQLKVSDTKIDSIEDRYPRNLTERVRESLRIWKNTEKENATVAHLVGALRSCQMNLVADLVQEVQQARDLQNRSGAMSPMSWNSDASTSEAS

[3] = molecular target: cysteines in MDA-MB-231 and Ramos cells (Homo sapiens, UniProt Q8NBS9); experiment: as above; assay type: cell-based; settings: for isoTOP-ABPP ratio Q8NBS9_C350: 200 μM, insitu
cysteines in MDA-MB-231 and Ramos cells (Homo sapiens, UniProt Q8NBS9), sequence (Q8NBS9 33-432): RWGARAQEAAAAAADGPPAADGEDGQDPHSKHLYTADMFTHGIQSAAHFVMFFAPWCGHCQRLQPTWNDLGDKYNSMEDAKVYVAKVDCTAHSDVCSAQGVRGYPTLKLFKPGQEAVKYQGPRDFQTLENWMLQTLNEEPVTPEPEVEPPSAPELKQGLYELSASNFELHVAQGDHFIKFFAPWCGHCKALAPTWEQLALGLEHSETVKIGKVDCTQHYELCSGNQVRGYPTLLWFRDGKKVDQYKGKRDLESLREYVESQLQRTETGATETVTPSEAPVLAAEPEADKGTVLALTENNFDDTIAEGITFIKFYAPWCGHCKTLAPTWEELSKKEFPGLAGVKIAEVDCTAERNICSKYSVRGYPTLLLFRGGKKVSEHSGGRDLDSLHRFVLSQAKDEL

[4] = molecular target: cysteines in MDA-MB-231 and Ramos cells (Homo sapiens, UniProt Q96RP9); experiment: as above; assay type: cell-based
cysteines in MDA-MB-231 and Ramos cells (Homo sapiens, UniProt Q96RP9), sequence (Q96RP9 37-751): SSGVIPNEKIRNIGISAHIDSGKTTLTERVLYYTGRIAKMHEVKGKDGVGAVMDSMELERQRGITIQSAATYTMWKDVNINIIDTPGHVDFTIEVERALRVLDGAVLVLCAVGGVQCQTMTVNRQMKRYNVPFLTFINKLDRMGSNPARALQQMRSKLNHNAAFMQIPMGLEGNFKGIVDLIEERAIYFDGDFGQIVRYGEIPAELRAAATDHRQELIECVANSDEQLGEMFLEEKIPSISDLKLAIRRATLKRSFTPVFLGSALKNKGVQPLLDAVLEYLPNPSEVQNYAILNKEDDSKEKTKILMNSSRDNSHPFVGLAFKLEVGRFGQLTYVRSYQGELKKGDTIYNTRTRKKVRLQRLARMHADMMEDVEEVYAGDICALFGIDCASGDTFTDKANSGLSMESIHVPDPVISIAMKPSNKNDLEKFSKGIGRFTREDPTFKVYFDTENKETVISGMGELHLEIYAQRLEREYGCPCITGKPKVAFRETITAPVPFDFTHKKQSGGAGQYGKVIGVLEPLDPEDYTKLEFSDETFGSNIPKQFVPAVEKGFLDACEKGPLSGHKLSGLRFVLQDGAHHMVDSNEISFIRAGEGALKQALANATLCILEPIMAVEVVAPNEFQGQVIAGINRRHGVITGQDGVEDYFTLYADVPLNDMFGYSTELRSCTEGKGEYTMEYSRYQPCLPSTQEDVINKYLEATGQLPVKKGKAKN

[5] = molecular target: T3, cysteines in MDA-MB-231 and Ramos cells (Homo sapiens, UniProt Q9NWA0); experiment: as above; assay type: cell-based
T3 sequence (Q9NWA0 1-146): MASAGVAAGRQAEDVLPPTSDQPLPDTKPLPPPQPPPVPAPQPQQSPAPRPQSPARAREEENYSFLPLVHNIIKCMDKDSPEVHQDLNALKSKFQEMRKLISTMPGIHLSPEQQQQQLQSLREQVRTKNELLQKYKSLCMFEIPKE

[6] = molecular target: T4, cysteines in MDA-MB-231 and Ramos cells (Homo sapiens, UniProt Q9Y5Y2); experiment: as above; assay type: cell-based; settings: 200 μM, insitu, 231
T4 sequence (Q9Y5Y2 1-271): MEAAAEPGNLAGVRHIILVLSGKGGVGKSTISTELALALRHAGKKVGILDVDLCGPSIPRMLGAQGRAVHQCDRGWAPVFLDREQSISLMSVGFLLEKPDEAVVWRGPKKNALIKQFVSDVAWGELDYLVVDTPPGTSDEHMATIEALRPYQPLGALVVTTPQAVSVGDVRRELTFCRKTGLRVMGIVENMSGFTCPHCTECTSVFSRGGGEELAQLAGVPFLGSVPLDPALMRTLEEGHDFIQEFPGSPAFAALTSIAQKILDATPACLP

C=CC(=O)N(Cc1cccnc1)c1ccc(Oc2ccccc2)c(C(F)(F)F)c1 [compound 15]
isoTOP-ABPP ratio (reactivity profile), Q02556_C306 (IRF8 C306 (Q02556); 500 μm in-vitro ramos): 2.1 | isoTOP-ABPP ratio, Q9HB90_C358 (RRAGC C358 (Q9HB90); 500 μM, invitro, 231): 1.1

COc1cc(NC(=O)CCl)cc(OC)c1 [compound 43]
isoTOP-ABPP reactivity profile ratio, Q02556_C306 (IRF8 C306 (Q02556)): 2.7

CC(C)CCOCCNC(=O)CCl [compound 27]
isoTOP-ABPP ratio P45984_C177 ([1]; 200 μM, insitu, 231): 0.5 | isoTOP-ABPP ratio Q13158_C98 [2]: 0.6 | isoTOP-ABPP ratio Q8NBS9_C350 [3]; 231: 1.1 | isoTOP-ABPP ratio Q96RP9_C153 ([4]; 200 μM, insitu, 231): 1.6 | isoTOP-ABPP ratio Q9NWA0_C139 ([5]; 200 μM, insitu, 231): 1.3 | isoTOP-ABPP ratio (reactivity profile), Q02556_C306 (IRF8 C306 (Q02556); 500 μm in-vitro ramos_231): 1.1 | isoTOP-ABPP ratio (reactivity profile), Q9HB90_C358 (RRAGC C358 (Q9HB90)): 0.3

COc1cc2c(cc1OC)CN(C(=O)CCl)CC2 [compound 8]
isoTOP-ABPP reactivity P45984_C177 MAPK9 ([1]; 200 μM, insitu, 231): 20.0

COc1ccc(C2CC(c3cccs3)=NN2C(=O)CCl)cc1 (centres unmarked) [compound 4]
isoTOP-ABPP reactivity P45984_C177 MAPK9 ([1]; 100 μM in situ 231): 12.0 | isoTOP-ABPP reactivity Q8NBS9_C350 TXNDC5 ([3]; 100 μM in situ 231): 2.4 | isoTOP-ABPP reactivity Q96RP9_C153 GFM1 ([4]; 100 μM in situ 231): 1.0 | isoTOP-ABPP reactivity Q9NWA0_0139 MED9 ([5]; 100 μM in situ 231): 14 | R value (DMSO/fragment) (RRAGC C358 (Q9HB90); 250 μM, in vitro, MDA-MB-231): 1.5

O=C(CCl)Nc1cccc2ncccc12 [compound 51]
isoTOP-ABPP reactivity profile ratio, Q02556_C306 (IRF8 C306 (Q02556)): 1.5

COc1ccccc1OCCNC(=O)CCl [compound 28]
isoTOP-ABPP ratio Q8NBS9_C350 [3]; 231: 1.1 | isoTOP-ABPP ratio (reactivity profile), Q9HB90_C358 (RRAGC C358 (Q9HB90)): 1.1

O=C(CCl)N1CCN(S(=O)(=O)c2ccccc2F)CC1 [compound 10]
isoTOP-ABPP ratio P45984_C177 ([1]; 200 μM, insitu, 231): 20.0 | isoTOP-ABPP ratio Q8NBS9_C350 ([3]; ramos): 1.4 | isoTOP-ABPP ratio, cysteine Q96RP9_C153 ([4]; 200 μM, insitu, 231): 14.8 | isoTOP-ABPP ratio, cysteine Q9NWA0_C139 ([5]; 200 μM, insitu, 231): 2.9 | isoTOP-ABPP ratio, cysteine Q9Y5Y2_C72 [6]: 1.3 | isoTOP-ABPP ratio, Q02556_C306 (IRF8 C306 (Q02556); 500 μM, invitro, ramos): 3.6

CC1CCc2ccccc2N1C(=O)CCl (centres unmarked) [compound 45]
isoTOP-ABPP ratio Q8NBS9_C350 [3]; 231: 2.1

O=C(CCl)Nc1ccccc1C1CCCCCC1 [compound 35]
isoTOP-ABPP reactivity ratio, Q02556_C306 (IRF8 C306 (Q02556)): 1.2

C=CC(=O)N(c1ccccc1)C1CCCCC1 [compound 46]
isoTOP-ABPP reactivity profile ratio, Q9HB90_C358 (RRAGC C358 (Q9HB90); 500 μm, in-vitro_ramos_231): 1.1

Cc1ccc(C=C(C#N)C(=O)NCCN2CCOCC2)cc1 [compound 41]
isoTOP-ABPP ratio P45984_C177 ([1]; 200 μM, insitu, 231): 0.5 | isoTOP-ABPP ratio Q8NBS9_C350 [3]; 231: 0.9 | isoTOP-ABPP ratio Q96RP9_C153 ([4]; 200 μM, insitu, 231): 1.1 | isoTOP-ABPP ratio Q9NWA0_C139 ([5]; 200 μM, insitu, 231): 0.8 | isoTOP-ABPP reactivity ratio, Q02556_C306 (IRF8 C306 (Q02556)): 1.4 | isoTOP-ABPP reactivity ratio, Q9HB90_C358 (RRAGC C358 (Q9HB90); 500 μm, in-vitro_ramos_231): 1.3

CC(C)(C)c1cc(NC(=O)CCl)on1 [compound 32]
isoTOP-ABPP reactivity ratio, Q9HB90_C358 (RRAGC C358 (Q9HB90); 500 μm, in-vitro_ramos): 1.2 | isoTOP-ABPP reactivity ratio, Q9HB90_C358 (RRAGC C358 (Q9HB90); 500 μm, in-vitro_ramos_231): 1.9

C=CC(=O)N(c1ccccc1)c1ccc(Br)cc1 [compound 5]
isoTOP-ABPP ratio, Q02556_C306 (IRF8 C306 (Q02556); 500 μM, invitro, ramos): 2.6

O=C(CCl)Nc1cc(C(F)(F)F)cc(C(F)(F)F)c1 [compound 3]
R value (DMSO/fragment) (IRF8 C306 (Q02556); 500 μM, invitro, ramos): 5.6 | R value (DMSO/fragment) (RRAGC C358 (Q9HB90); 500 μM, in vitro, MDA-MB-231): 1.2

COc1ccc2c(c1)CCCN2C(=O)CCl [compound 2]
isoTOP-ABPP reactivity Q13158_C98 FADD [2]: 20.0 | isoTOP-ABPP reactivity Q9NWA0_0139 MED9 ([5]; 200 μM, insitu, 231): 4.3 | isoTOP-ABPP reactivity Q9Y5Y2_C72 NUBP2 [6]: 5.3 | R value (DMSO/fragment) (RRAGC C358 (Q9HB90); 500 μM, in vitro, MDA-MB-231): 20.0 | R value (DMSO/fragment) (RRAGC C358 (Q9HB90); 500 μM, invitro, ramos): 20.0
